Measured values as given in the OligoGym collection.
“And” between values parts separate entries of the source, which are not always exact repeats. Equal values may be shown once. After the bases stand the sugars from the 5' end (letter, count) and the backbone: PS all phosphorothioate, else s phosphorothioate and o phosphodiester by linkage. Methylation of C is not given here. e = 2'-O-(2-methoxyethyl) (MOE); k = constrained ethyl (cEt); d = 2'-deoxy (DNA)

Target: IRF4
Conditions: ASO

| Sequence | target mRNA inhibition (SK-MEL-28, 4 µM) [%] | target mRNA inhibition (MM.1R, 1 µM) | also measured |
| --- | --- | --- | --- |
| ATTCTTAGAATGCATA (sugars k4 d8 k4, PS) | 33 | – | – |
| CATAGAGCCAGAGCAG (sugars k3 d10 k3, PS) | 60 | – | – |
| CTAGACAGAGAGTCCG (sugars k3 d10 k3, PS) | – | 5% | – |
| TTACGCTTATTTTTCC (sugars k3 d10 k3, PS) | – | 39% | – |
| TTTTATATATGACGAC (sugars k3 d10 k3, PS) | 34 | – | – |
| TAACTAAAACTGCATC (sugars k3 d10 k3, PS) | 10 | – | – |
| AGCTTGATAAAGGCTG (sugars kkdddddddddkdkdk, PS) | – | -3% | – |
| AGACATTACTAGATTG (sugars k3 d10 k3, PS) | 66 | – | – |
| TCTGAGGGTCTGGAAA (sugars k4 d8 k4, PS) | 3 | – | – |
| ACAAATTAAAGAGCGC (sugars k3 d10 k3, PS) | 64 | – | – |
| CTAAAGGAGTGCAGGA (sugars k3 d10 k3, PS) | 6 | – | – |
| GTAGTATGAGAAACGG (sugars k2 d9 e3 k2, PS) | – | 51% | – |
| TAGAATGCATAACACG (sugars k3 d10 k3, PS) | – | 8% | – |
| TGTCAAACTATAATTG (sugars k3 d10 k3, PS) | 15 | – | – |
| CTATCAGGATCTCAAG (sugars k3 d10 k3, PS) | 9 | – | – |
| CATTGAGGCATACAGT (sugars k3 d10 k3, PS) | 55 | – | – |
| ACAAAAACTTGGGTCA (sugars k3 d10 k3, PS) | – | -13% | – |
| ATGTTGCATAGGCATC (sugars k3 d10 k3, PS) | – | 10% | – |
| GCCGCTGTCGATCTGG (sugars k4 d8 k4, PS) | 15 | – | – |
| TGCCCAATACATATCC (sugars k3 d10 k3, PS) | 59 | – | – |
| CTTAATTCTGGGTTAA (sugars k3 d10 k3, PS) | 53 | – | – |
| CAGCACTCAGATTCTA (sugars k3 d10 k3, PS) | 12 | – | – |
| TTCACACTGCCGTGAT (sugars k3 d10 k3, PS) | – | -12% | – |

| Sequence | target mRNA inhibition (SK-MEL-28, 4 µM) [%] | target mRNA inhibition (MM.1R, 1 µM) | also measured |
| --- | --- | --- | --- |
| CTGCAGAACAGACGCG (sugars k3 d10 k3, PS) | 11 | – | – |
| CTGGGTTTTCTGTAGG (sugars k3 d10 k3, PS) | 48 | – | – |
| CGCTGGACAGCCAAAC (sugars k3 d10 k3, PS) | 41 | – | – |
| AGGAACTAGTCGACAG (sugars k3 d10 k3, PS) | 40 | – | – |
| GTAGACCACAGTGAAG (sugars k3 d10 k3, PS) | 29 | – | – |
| AGCTTGATAAAGGCTG (sugars kdddddddddkekeke, PS) | – | 2% | – |
| TAACGAGGTGCCTTAC (sugars k3 d10 k3, PS) | – | 13% | – |
| ACAAAACGGACTGGAA (sugars k3 d10 k3, PS) | 14 | – | – |
| ACTGTTACCGATGCTT (sugars kkddddddddddkeke, PS) | – | 30% and 48% | – |
| AAGTGTCTAAAGTCCC (sugars kkdddddddddkdkdk, PS) | – | 13% and 21% | – |
| AGCAAGTGTCTAAAGT (sugars k3 d10 k3, PS) | 62 | 22% | target mRNA inhibition (MM.1R, 0.0625 µM): -1%; target mRNA inhibition (MM.1R, 0.074 µM): -8%; target mRNA inhibition (MM.1R, 0.222 µM): 6%; target mRNA inhibition (MM.1R, 0.25 µM): 12%; target mRNA inhibition (MM.1R, 0.666 µM): 11%; target mRNA inhibition (MM.1R, 2 µM): 33%; target mRNA inhibition (MM.1R, 4 µM): 51% |
| TCAGTTTGTGAAGCAT (sugars kkdddddddddekeke, PS) | – | 45% | – |
| CGTATTTGTCGAGATC (sugars k3 d10 k3, PS) | 50 | – | – |
| GCAAAACGCAGAGCCA (sugars k3 d10 k3, PS) | 57 | – | – |
| TTACTCCGCTGAGTGG (sugars k3 d10 k3, PS) | – | -4% | – |
| GACCTAATCTACAACA (sugars k3 d10 k3, PS) | 33 | – | – |
| CTGGCATTGAGACGGG (sugars k3 d10 k3, PS) | 61 | – | – |
| CAACCATTTTCACAAG (sugars k3 d10 k3, PS) | 17 | – | – |
| GACGACTTAAGCTAAA (sugars k3 d10 k3, PS) | 62 | – | – |
| GGCACATCAATGTTTT (sugars k3 d10 k3, PS) | – | 18% and 14% | – |
| TAAGAAGCACTGGCAT (sugars k3 d10 k3, PS) | 26 | – | – |
| TACTCTTAGGCACATC (sugars k3 d10 k3, PS) | 59 | – | – |
| CTGGATTGATGTGATA (sugars k3 d10 k3, PS) | 43 | – | – |

| Sequence | target mRNA inhibition (SK-MEL-28, 4 µM) [%] | target mRNA inhibition (MM.1R, 1 µM) | also measured |
| --- | --- | --- | --- |
| CCAACTTATAGCACTC (sugars k3 d10 k3, PS) | – | 14% | – |
| GCACATCAATGTTTTA (sugars k3 d10 k3, PS) | 67 | – | – |
| TGCCACAGTTGAACCC (sugars k3 d10 k3, PS) | 50 | – | – |
| TCAGTTTGTGAAGCAT (sugars kkdddddddddkekek, PS) | – | 58% | target mRNA inhibition (MM.1R, 0.074 µM): 9%; target mRNA inhibition (MM.1R, 0.222 µM): 27%; target mRNA inhibition (MM.1R, 0.666 µM): 46%; target mRNA inhibition (MM.1R, 2 µM): 73% |
| AGCATATTCCAACAGG (sugars k3 d10 k3, PS) | 69 | 18% | target mRNA inhibition (MM.1R, 0.0625 µM): -1%; target mRNA inhibition (MM.1R, 0.074 µM): -8%; target mRNA inhibition (MM.1R, 0.222 µM): -6%; target mRNA inhibition (MM.1R, 0.25 µM): 6%; target mRNA inhibition (MM.1R, 0.666 µM): 19%; target mRNA inhibition (MM.1R, 2 µM): 32%; target mRNA inhibition (MM.1R, 4 µM): 58% |
| CGGACGAACGCGCAAA (sugars k3 d10 k3, PS) | 39 | – | – |
| AATCACTGGAGAGAAC (sugars k3 d10 k3, PS) | 29 | – | – |
| ACTTACAGGACTATTT (sugars k3 d10 k3, PS) | 16 | – | – |
| GGAAGTTTACACTGGA (sugars k3 d9 k3 e1, PS) | – | 78% | target mRNA inhibition (MM.1R, 0.074 µM): 20%; target mRNA inhibition (MM.1R, 0.222 µM): 45%; target mRNA inhibition (MM.1R, 0.666 µM): 77%; target mRNA inhibition (MM.1R, 2 µM): 91% |
| GGCCTCTGAGCAGAAC (sugars k3 d10 k3, PS) | 27 | – | – |
| GGGATTCCGCGCGCAG (sugars k3 d10 k3, PS) | 14 | – | – |
| TTATGGACCACGCAGC (sugars k3 d10 k3, PS) | 31 | – | – |
| ATCCGAAAAGACTGGA (sugars k3 d10 k3, PS) | – | -20% | – |
| GGGTGCTCTTACAGCC (sugars k3 d10 k3, PS) | – | -2% | – |
| TCTATGGGATTATATA (sugars k3 d10 k3, PS) | 26 | – | – |
| GTTTGTGAAGCATCCT (sugars k3 d10 k3, PS) | 65 | – | – |
| GTAAAACATAACTTAC (sugars k3 d10 k3, PS) | 8 | – | – |
| TCAGTTTGTGAAGCAT (sugars kdddddddddkekeke, PS) | – | 9% | – |
| TATTACCATGCATAGT (sugars k3 d10 k3, PS) | 30 | – | – |
| TGTGCTTGCCAAGCCT (sugars kkddddddddddkeke, PS) | – | 26% and 30% | – |
| GTTCCTGTCACCTGGC (sugars k3 d10 k3, PS) | 49 | – | – |
| TCAAAGTCATTGCTCT (sugars k3 d10 k3, PS) | 21 | – | – |
| GCGCAAGTCTACAGCC (sugars k3 d10 k3, PS) | -20 | – | – |

| Sequence | target mRNA inhibition (SK-MEL-28, 4 µM) [%] | target mRNA inhibition (MM.1R, 1 µM) | also measured |
| --- | --- | --- | --- |
| ACCACAAGCAGTGATG (sugars k3 d10 k3, PS) | – | 1% | – |
| AGCCTAGAGGTGCCTT (sugars k3 d10 k3, PS) | 41 | – | – |
| AACTGGATTGATGTGA (sugars k3 d10 k3, PS) | 77 | – | – |
| CATTGGACCCACGAAG (sugars k3 d10 k3, PS) | 28 | – | – |
| TAAAAGGTTCCTGTCA (sugars k3 d10 k3, PS) | 6 | – | – |
| ACTAGATTGTAGGACA (sugars k3 d10 k3, PS) | -9 | – | – |
| TTGCTCTTGTTCAAAG (sugars k3 d10 k3, PS) | 29 | – | – |
| TACGCTTATTTTTCCA (sugars k3 d10 k3, PS) | – | 51% and 56% | target mRNA inhibition (MM.1R, 0.0625 µM): 1% and 12%; target mRNA inhibition (MM.1R, 0.25 µM): 29% and 44%; target mRNA inhibition (MM.1R, 4 µM): 65% and 77% |
| GTTGTAAATGAGTCGG (sugars k2 d9 e3 k2, PS) | – | 82% | target mRNA inhibition (H929, 0.00067 µM): 6%; target mRNA inhibition (H929, 0.002 µM): 21%; target mRNA inhibition (H929, 0.00667 µM): 45%; target mRNA inhibition (H929, 0.02 µM): 57%; target mRNA inhibition (H929, 0.04 µM): 13%; target mRNA inhibition (KMS11, 0.2 µM): 50% and 44%; target mRNA inhibition (MM.1R, 0.074 µM): 26%; target mRNA inhibition (MM.1R, 0.222 µM): 53%; target mRNA inhibition (MM.1R, 0.666 µM): 76%; target mRNA inhibition (MM.1R, 2 µM): 93% |
| CCACGAGGCCCCGGAG (sugars k3 d10 k3, PS) | – | 4% | – |
| CCCCAGCTATGCTCTA (sugars k3 d10 k3, PS) | – | -30% | – |
| CTCTATAGTGTTCCAG (sugars e1 k2 d9 k2 e2, PS) | – | 59% | target mRNA inhibition (MM.1R, 0.074 µM): 20%; target mRNA inhibition (MM.1R, 0.222 µM): 37%; target mRNA inhibition (MM.1R, 0.666 µM): 53%; target mRNA inhibition (MM.1R, 2 µM): 75% |
| GCATAGAGTCACCTGG (sugars k3 d10 k3, PS) | 39 | – | – |
| ATAGTGCAATGAAATG (sugars k3 d10 k3, PS) | 36 | – | – |
| ATCTTAACCTGGAGAA (sugars k3 d10 k3, PS) | 28 | – | – |
| CCCAATACATATCCAT (sugars k3 d10 k3, PS) | 74 | – | – |
| CTCCTATGCTGAACCC (sugars k3 d10 k3, PS) | – | 9% | – |
| GGCTAGCTGTATTTAT (sugars k3 d10 k3, PS) | 37 | – | – |
| TGTGCTTGCCAAGCCT (sugars kkdddddddddkekek, PS) | – | 2% and 18% | – |
| TCCCACTGTCACTATG (sugars k3 d10 k3, PS) | 15 | – | – |
| GTCACCTGGCAACCAT (sugars k4 d8 k4, PS) | 41 | – | – |
| TCCCCGTATCAAAAAA (sugars k3 d10 k3, PS) | -12 | – | – |
| GCAATCTTAACCTGGA (sugars k3 d10 k3, PS) | – | 37% and 38% | target mRNA inhibition (MM.1R, 0.0625 µM): -3% and 3%; target mRNA inhibition (MM.1R, 0.25 µM): 8%; target mRNA inhibition (MM.1R, 4 µM): 70% and 71% |
